Results reported in US5049372A, “Anticancer activities in a host by increasing blood and plasma adenosine 5'-triphosphate (ATP) levels” (priority 1988, dated 1991).
“Also recorded” adds a separate entry of the source.

Columns and labels:
RBC ATP pools [1] = test: Expansion of RBC ATP pools and blood plasma ATP levels after i.p. injection (Table 4); format: in vivo, mouse; conditions: for Plasma ATP levels / RBC ATP pools / Plasma [^3 ]ATP levels immediately after [^3 H]adenosine incorporation into whole blood: 5 hours after i.p. injection of 2 ml of 35 mM, CB6F1; for Plasma ATP levels / RBC ATP pools: bioluminometry, citrate-dextrose; for Plasma [^3 ]ATP levels immediately after [^3 H]adenosine incorporation into whole blood: radioactivity corrected by RBC specific radioactivity; for Duration of expansion of RBC ATP pools: after complete adsorption across the peritoneal membrane; for Time at which expansion of RBC ATP pools could be detected: after i.p. injection; for Increase in plasma (extracellular) ATP levels (in words): i.p. administration; for Expansion of RBC ATP pools (in words): i.p. injection, host animals
Description: (§1) The mice are anesthetized with ether during the procedure. Plasma or Hanks' (Balanced Salt Solution) BSS media from incubated isolated RBCs (Red Blood Cells) are prepared by centrifugation of whole blood or RBCs in a Beckman microfuge (30 seconds at 8000 xg) and samples of 100 μl are added to 1 ml of ice-cold 7% trichloroacetic acid. Red blood cells are prepared by centrifugation of whole blood (1500 xg for 5 minutes at 4° C.) and removal of plasma and the buffy coat is followed by a wash of the pelleted RBCs (from 250 μl of whole blood) in 5 ml of ice-cold Hanks' BSS. After centrifugations, the RBCs pellet is resuspended in Hanks' BSS to yield a total volume with the original hematocrit (percent of RBCs volume in the whole blood). Aliquots of 20 μl of RBCs suspensions or whole blood are added to 1 ml of ice-cold 7% trichloroacetic acid. Extraction of acid-soluble nucleotides and determinations of ATP levels by luminometry followed procedures discussed hereinabove. Levels of [^3 H]ATP in whole blood, RBCs, plasma, or RBCs incubation media (Hanks' BSS) are determined after incorporation of 250 μCi of [^3 H]adenosine of specific radioactivity of 30 Ci/mmol (1 Ci=3.7×10^10 becquerels) into whole blood or RBC suspensions (250 μl total) followed by immediate trichloroacetic acid extractions as described above. Two dimensional thin layer chromatography on poly(ethylene)imine cellulose with an unlabeled ATP carrier is performed according to Bochner and Ames, J. Biol. Chem., 257, pp. 9759-9769, 1982). For the determination of whole blood or isolated RBC [^3 H]ATP pools, 10 μl of a 1 ml initial trichloroacetic acid extract are chromatographed. Determinations of [^3 H]ATP levels in blood plasma or RBCs incubation media are performed on 300 μl of an initial 1 ml trichloroacetic acid extract which are lyophilized and redissolved in 15 μl of water. After chromatography, the spots corresponding to the ATP carrier are cut, eluted with 0.5 ml of 4 N ammonium hydroxide, and radioactivity determined in 10 ml of scintillation fluid.
Single intraperitoneal injections of 2 ml of 35 mM of AMP or ATP in saline at pH 6.2 into CB6F1 mice result in expansions of RBC ATP pools in these mice (see Table 4).
The expansions of RBC ATP pools after i.p. injections of AMP or ATP could be detected 30 minutes after injections and lasted for approximately 6-8 hours after the nucleotides were completely adsorbed across the peritoneal membrane and into the systemic circulation. The rates of adsorption of intraperitoneal AMP or ATP solutions varied in different strains of mice. […] These plasma ATP levels originate in RBCs since they can be metabolically labeled by [^3 H]adenosine. Plasma ATP pools which originate in the dense granules of blood platelets would not be radioactively labeled under the same conditions (e.g., Holmsen, 1985, Seminars in Hematol, 22, 219-240). The experiments described in Tables 4 and 5 include uptake of [^3 H]adenosine by whole blood (Table 4) or isolated washed RBCs (Table 5 below). In both cases, all the extracellular ATP, determined seconds after the uptake of [^3 H]adenosine, is metabolically labeled.

[2] = ATP levels in mouse blood (total cellular) and plasma after i.p. injection (Table 3); format: in vivo; conditions: for Blood ATP levels: total cellular
Description: The mice are anesthetized with ether during the procedure. The plasma is prepared by immediate centrifugation of the blood in a Beckman microfuge (30 sec at 8000 xg). Blood (20 μl) or plasma (100 μl) aliquots are added to 1 ml of cold 7% trichloroacetic acid. […] The determination of ATP levels in the extracts is performed by bioluminometry (luciferinluciferase) using a Turner Designs Bioluminescence Photometer.

tumor cells = conditions: low doses; prior application Ser. No. 397,897; cited from earlier work
RBC ATP pools [3] = test: RBC ATP pools after in vitro incubation of whole mouse blood with 1 mM compound (Table 6); format: cell-based; conditions: for RBC ATP pools (after 30 min incubations in heparinized mouse blood): 1 mM compound, bioluminometry
Description: ^+ RBC ATP pools were determined in isolated washed RBCs after
incubations of whole blood with 1 mM of the specified compound by
bioluminometry. Data represent means ± S.D. of three separate

RBC ATP pools [4] = test: Stability of expanded RBC ATP pools in washed isolated RBCs in vitro after i.p. injection (Table 5); parameters: species or system mouse; conditions: average of two experiments; for Medium (Hanks' BSS) [^3 H]ATP levels immediately after [^3 H]adenosine incorporation into isolated, washed RBCs (at time 0) / ATP levels in the medium (Hanks' BSS): time 0; for ATP levels in the medium (Hanks' BSS): bioluminometry; for RBC ATP pools (37° C.), 0 min / RBC ATP pools (37° C.), 120 min: washed RBCs in Hanks' BSS
Description: as §1
Two hour incubations of washed isolated RBCs containing normal or expanded ATP pools in Hanks' BSS result in relatively small decreases in RBC ATP pools with the expanded pools being maintained well above normal levels (Table 5). The expansions of RBC ATP pools after i.p. administration of AMP or ATP in vivo is presumably the result of their dephosphorylation followed by the RBCs uptake of the adenosine which is generated in situ.

[5] = CB6F1, 1 hour after i.p. 1 ml of 50 mM
[6] = CB6F1, 5 hours after i.p. 1 ml of 50 mM
[7] = athymic nu/nu, 1 hour after i.p. 1 ml of 50 mM
[8] = athymic nu/nu, 4 hours after i.p. 1 ml of 50 mM

Compound | Plasma ATP levels (RBC ATP pools [1]) [µM] | RBC ATP pools (RBC ATP pools [1]) [mM] | Plasma [^3 ]ATP levels immediately after [^3 H]adenosine incorporation into whole blood (RBC ATP pools [1]) [µM] | Duration of expansion of RBC ATP pools (RBC ATP pools [1]) [h] | Time at which expansion of RBC ATP pools could be detected (RBC ATP pools [1]) [min] | Increase in plasma (extracellular) ATP levels (in words) (RBC ATP pools [1]) | Expansion of RBC ATP pools (in words) (RBC ATP pools [1]) | Plasma ATP levels [2, 5] [µM] | Blood ATP levels [2, 5] [mM] | Plasma ATP levels [2, 6] [µM] | Blood ATP levels [2, 6] [mM] | Plasma ATP levels [2, 7] [µM] | Blood ATP levels [2, 7] [mM] | Plasma ATP levels [2, 8] [µM] | Blood ATP levels [2, 8] [mM] | Effect on growth of tumor cells in vitro (in words) (tumor cells) | Increase in RBC ATP pools after in vitro treatment of whole mouse blood (in words) (RBC ATP pools [3]) | RBC ATP pools (after 30 min incubations in heparinized mouse blood) (RBC ATP pools [3]) [µM] | Medium (Hanks' BSS) [^3 H]ATP levels immediately after [^3 H]adenosine incorporation into isolated, washed RBCs (at time 0) (RBC ATP pools [4]) [µM] | ATP levels in the medium (Hanks' BSS) (RBC ATP pools [4]) [µM] | further results
Nc1ncnc2c1ncn2[C@@H]1O[C@H](COP(=O)(O)O)[C@@H](O)[C@H]1O [AMP, adenosine 5'-monophosphate] | 3.10 ± 0.96 | 1.78 ± 0.32 | 2.86 ± 1.06 | 6 to 8 | 30 | markedly increased; also recorded: several fold increases in plasma (extracellular) ATP levels | yielded expansions of red blood cell (RBC) ATP pools | 1.75 ± 0.36 | 1.23 ± 0.21 | 1.69 ± 0.19 | 1.36 ± 0.24 | 2.17 ± 0.36 | 1.87 ± 0.46 | 1.97 ± 0.41 | 2.35 ± 0.67 | would not inhibit cellular growth | marginal increases in RBC ATP pools | 0.73 ± 0.10 | 1.81 | 2.42 | RBC ATP pools (37° C.), 0 min (RBC ATP pools [4]): 1.01 mM; RBC ATP pools (37° C.), 120 min (RBC ATP pools [4]): 0.86 mM
Nc1ncnc2c1ncn2[C@@H]1O[C@H](COP(=O)(O)OP(=O)(O)OP(=O)(O)O)[C@@H](O)[C@H]1O [ATP, adenosine 5'-triphosphate] | 4.94 ± 1.17 | 2.49 ± 0.42 | 5.75 ± 2.05 | 6 to 8 | 30 | markedly increased; also recorded: several fold increases in plasma (extracellular) ATP levels | yielded expansions of red blood cell (RBC) ATP pools | 3.99 ± 0.81 | 2.53 ± 0.61 | 5.14 ± 0.71 | 3.47 ± 0.57 | 2.93 ± 0.69 | 2.71 ± 0.54 | 3.01 ± 0.76 | 4.26 ± 0.79 | marked inhibition of DNA synthesis and arrest of significant populations of cells in the S phase of their cycle | marginal increases in RBC ATP pools | 0.76 ± 0.05 | 4.93 | 4.08 | RBC ATP pools (37° C.), 0 min (RBC ATP pools [4]): 2.52 mM; RBC ATP pools (37° C.), 120 min (RBC ATP pools [4]): 1.76 mM
